Data taken from paper PMC7655067, “Crystal structure-guided design of berberine-based novel chitinase inhibitors” (Journal of Enzyme Inhibition and Medicinal Chemistry, 2020).
Structures can show the parent of a compound that is named as a salt. Where two headings read alike, the source gives them in different places.

What was measured:
hAMCase [1] = target: T1, hAMCase (Homo sapiens, UniProt Q9BZP6); experiment: Inhibitory activity assay with MU-(GlcNAc)2, Ki by Dixon plots; assay type: biochemical; conditions: pH 5.2
T1 construct: including the catalytic domains of OfChtI from O. furnacalis, human HsCht and human hAMCase; made in house; host or cells: Pichia pastoris GS115
Method: (§1) ChiB from S. marcescens was expressed in Escherichia coli BL21 (DE3). The other GH18 chitinases including the catalytic domains of OfChtI from O. furnacalis, human HsCht and human hAMCase were expressed in P. pastoris GS115. All the proteins were purified by immobilised metal affinity chromatography (IMAC) as described previously. The purities of the target proteins were analysed by SDS-PAGE followed by Coomassie Brilliant Blue R-250 staining.
(§2) The activity of GH18 chitinases were determined using MU-(GlcNAc)2 as a substrate. The reaction mixtures used for determining the inhibitor activity of compounds consisted of 100 μL of 20 nM enzyme, 4 μM MU-(GlcNAc)2, 1 or 10 μM inhibitors and 2% DMSO in the buffer (20 mM sodium phosphate, pH 6.0, for SmChiB, OfChtI and HsCht; 20 mM sodium citrate, pH 5.2, for hAMCase). The reaction in the absence of compounds was used as a positive control. After incubating at 30 °C for 25 min, an equal volume of 0.5 M sodium carbonate was added to the reaction mixtures to terminate the reaction, and the fluorescence produced by the released MU was quantified using a Varioskan Flash microplate reader (Thermo Fisher Scientific, Waltham, MA), with excitation and emission wavelengths of 360 and 450 nm, respectively. Experiments were performed in triplicate. […] The Ki values and types of inhibition were determined by linear fitting of the data in Dixon plots.

HsCht [2] = target: T2, HsCht (Homo sapiens, UniProt Q13231); experiment: as above; assay type: biochemical; conditions: pH 6.0
T2 construct: including the catalytic domains of OfChtI from O. furnacalis, human HsCht and human hAMCase; made in house; host or cells: Pichia pastoris GS115
Method: as §1, §2

OfChtI [3] = target: T3, OfChtI (Ostrinia furnacalis, UniProt Q2V6H4); experiment: as above; assay type: biochemical; conditions: for Ki: pH 6.0, Dixon plots
Method: as §1, §2

SmChiB [4] = target: T4, SmChiB (Serratia marcescens, UniProt P11797); experiment: biochemical; assay type: biochemical
T4 construct: made in house; host or cells: Escherichia coli BL21 (DE3)
T4 sequence (P11797 42-499): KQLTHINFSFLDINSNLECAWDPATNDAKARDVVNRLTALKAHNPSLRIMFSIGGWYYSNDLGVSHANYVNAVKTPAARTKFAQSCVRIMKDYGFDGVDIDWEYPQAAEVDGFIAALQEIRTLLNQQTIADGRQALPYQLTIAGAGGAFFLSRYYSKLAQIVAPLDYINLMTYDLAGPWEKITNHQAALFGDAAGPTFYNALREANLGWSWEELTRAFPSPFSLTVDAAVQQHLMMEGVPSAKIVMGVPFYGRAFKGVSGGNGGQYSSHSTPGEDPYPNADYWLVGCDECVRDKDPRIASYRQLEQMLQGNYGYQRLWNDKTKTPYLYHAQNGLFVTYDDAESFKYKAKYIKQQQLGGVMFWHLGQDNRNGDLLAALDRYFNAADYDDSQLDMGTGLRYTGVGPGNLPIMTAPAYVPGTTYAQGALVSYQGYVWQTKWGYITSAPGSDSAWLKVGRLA
Method: as §1, §2

SmChiB [5] = target: T4, SmChiB; experiment: Tryptophan fluorescence quenching, Kd by modified Stern-Volmer equation; assay type: binding
Method: (§3) Tryptophan fluorescence (295 nm excitation) was measured at 25 °C from 300 to 400 nm with a Varioskan Flash microplate reader using excitation and emission band passes of 5 nm. Fluorescence quenching experiments were performed in a 200 μL mixture containing 1 μM protein in the buffer (20 mM sodium phosphate, pH 6.0, for SmChiB, OfChtI and HsCht; 20 mM sodium citrate, pH 5.2, for hAMCase), and by the successive addition of aliquots of compounds stock solution. Since the crystal structure confirmed that berberine binding to SmChiB in a 1:1 ratio, the dissociation constant Kd were then determined using the modified Stern-Volmer equation[35]^,[36]. […]

OfChtI [6] = target: T3, OfChtI; experiment: as above; assay type: binding
Method: as §3

hAMCase [7] = target: T1, hAMCase; set-up: method as in PMID 30135205; conditions: cited from earlier work
HsCht [8] = target: T2, HsCht; set-up: method as in PMID 30135205; conditions: cited from earlier work
OfChtI [9] = target: T3, OfChtI; set-up: method as in PMID 30135205; conditions: cited from earlier work
hAMCase [10] = target: T1, hAMCase; experiment: Tryptophan fluorescence quenching, Kd by modified Stern-Volmer equation; assay type: binding; conditions: pH 5.2
Method: (§4) Fluorescence quenching experiments were performed in a 200 μL mixture containing 1 μM protein in the buffer (20 mM sodium phosphate, pH 6.0, for SmChiB, OfChtI and HsCht; 20 mM sodium citrate, pH 5.2, for hAMCase), and by the successive addition of aliquots of compounds stock solution.

HsCht [11] = target: T2, HsCht; experiment: as above; assay type: binding; conditions: pH 6.0
Method: as §4

[12] = SmChiB, pH 6.0, Dixon plots, read-out: Ki
[13] = SmChiB, tryptophan fluorescence quenching, pH 6.0, read-out: Kd

T1 sequence (Q9BZP6 22-390 limits assumed): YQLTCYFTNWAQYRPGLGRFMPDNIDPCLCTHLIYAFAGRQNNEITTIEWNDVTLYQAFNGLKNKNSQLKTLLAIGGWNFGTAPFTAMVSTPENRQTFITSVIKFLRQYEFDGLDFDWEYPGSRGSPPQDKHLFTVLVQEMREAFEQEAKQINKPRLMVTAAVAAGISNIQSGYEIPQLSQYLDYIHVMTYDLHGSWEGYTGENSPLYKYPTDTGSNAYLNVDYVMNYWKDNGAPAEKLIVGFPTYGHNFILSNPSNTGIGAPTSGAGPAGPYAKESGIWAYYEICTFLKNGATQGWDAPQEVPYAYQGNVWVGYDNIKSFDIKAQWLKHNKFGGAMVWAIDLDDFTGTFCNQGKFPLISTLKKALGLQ
T2 sequence (Q13231 22-388 limits assumed): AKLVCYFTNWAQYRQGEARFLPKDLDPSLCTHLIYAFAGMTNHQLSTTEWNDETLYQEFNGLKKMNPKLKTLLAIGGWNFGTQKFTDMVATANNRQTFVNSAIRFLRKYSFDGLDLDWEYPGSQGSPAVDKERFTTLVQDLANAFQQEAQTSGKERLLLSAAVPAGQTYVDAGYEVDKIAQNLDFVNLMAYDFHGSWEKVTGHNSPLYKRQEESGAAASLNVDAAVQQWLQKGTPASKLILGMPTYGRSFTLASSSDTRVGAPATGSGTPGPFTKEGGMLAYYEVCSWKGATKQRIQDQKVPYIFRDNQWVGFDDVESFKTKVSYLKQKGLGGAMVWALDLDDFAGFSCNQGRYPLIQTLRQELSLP
T3 sequence (Q2V6H4 entry or part of it): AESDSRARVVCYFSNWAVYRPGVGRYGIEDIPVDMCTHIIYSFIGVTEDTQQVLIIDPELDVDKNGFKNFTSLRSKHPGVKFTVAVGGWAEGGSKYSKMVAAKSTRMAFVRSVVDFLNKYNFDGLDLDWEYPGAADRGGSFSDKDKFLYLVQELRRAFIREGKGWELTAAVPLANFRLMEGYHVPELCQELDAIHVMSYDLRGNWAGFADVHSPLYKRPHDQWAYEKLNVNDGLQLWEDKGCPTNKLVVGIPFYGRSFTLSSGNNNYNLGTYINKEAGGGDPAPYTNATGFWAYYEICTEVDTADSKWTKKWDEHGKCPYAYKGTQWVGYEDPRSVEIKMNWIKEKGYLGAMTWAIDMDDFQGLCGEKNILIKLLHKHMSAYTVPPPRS

COC(=O)CCC(=O)Oc1c(OC)ccc2cc3[n+](cc12)CCc1cc2c(cc1-3)OCO2 (as salt: chloride) [4a]
melting point: 192 °C (dec.)

COC(=O)CCC(=O)Oc1c(OC)ccc2cc3[n+](cc12)CCc1cc2c(cc1-3)OCO2 [4a]
Ki (hAMCase [1]): 7.43 µM | Ki (HsCht [2]): 8.23 µM | Ki (OfChtI [3]): 6.43 µM | Ki (SmChiB [4]; [12]): 0.68 µM | Kd (SmChiB [5]; [13]): 1.12 µM

COc1ccc2cc3[n+](cc2c1OC(=O)c1ccccc1)CCc1cc2c(cc1-3)OCO2 [4b]
Ki (hAMCase [1]): 4.62 µM | Ki (HsCht [2]): 11.4 µM | Ki (OfChtI [3]): 7.28 µM | Ki (SmChiB [4]; [12]): 2.36 µM | Kd (SmChiB [5]; [13]): 2.99 µM

COc1ccc2cc3[n+](cc2c1OC(=O)c1ccc(F)nc1)CCc1cc2c(cc1-3)OCO2 [4c]
inhibitory activity increase compared to berberine (OfChtI [3]; from Ki values): 7.5 fold | Ki (OfChtI [3]): 3.03 µM | Ki (SmChiB [4]; [12]): 0.15 µM | Kd (OfChtI [6]; OfChtI, tryptophan fluorescence quenching, pH 6.0, read-out: Kd): 2.58 µM | Kd (SmChiB [5]; [13]): 0.19 µM

COc1ccc2cc3[n+](cc2c1OC)CCc1cc2c(cc1-3)OCO2 [Berberine, berberine]
Ki (SmChiB [4]): 11.8 µM | type of inhibition (SmChiB [4]; SmChiB, Dixon plots): competitive inhibitor | Ki (hAMCase [7]): 65 µM | type of inhibition (hAMCase [7]): competitive inhibitor | Ki (HsCht [8]): 19 µM | type of inhibition (HsCht [8]): competitive inhibitor | Ki (OfChtI [9]): 23 µM | type of inhibition (OfChtI [9]): competitive inhibitor | Kd (hAMCase [10]): 58 µM | Kd (HsCht [11]): 21.9 µM | Kd (OfChtI [6]): 20.6 µM | Kd (SmChiB [5]): 12 µM
